# Measurements reported in patent US8916164B2, “Methods of enhancing adjuvaticity of vaccine compositions” (ABIVAX, priority 2007, dated 2014).
# Entries after “also recorded” stand apart in the source; their conditions may differ.
# Experiments:
# [1] = tested on: NKT cells; experiment: Expansion of NKT cells in culture of peripheral blood lymphocytes (PBL), flow cytometry on day 7; format: cell-based, human; conditions: for percentage of NKT cells in the CD3+ population: PBL of two healthy donors, 10 ng/ml, 100 ng/ml or 1 μg/ml, rhIL-2, day 7 (FIG. 1)
# Protocol: PBLs were derived from two healthy donors and grown in RPMI cell culture media with 5% AB serum. Cells were plated on 12-well plates at 2×10^6 PBL/well/2 ml. Wells were treated with negative controls (0.05% Tween20 and 1% DMSO in PBS or 0.05% Tween20 and 10% DMSO in PBS) or the test adjuvants (αGalCer, PBS-20, PBS-25, or PBS-57) at a final concentration of 10 ng/ml, 100 ng/ml or 1 μg/ml. The chemical structures for control compounds αGalCer, PBS-20 and PBS25 are shown below:
# All cultures were supplemented with recombinant human IL2 (rhIL-2) to obtain final concentration of 100 UI/ml by day 1. All cells were cultured for 10 days at 37° C. under 5% CO2. On day 7, half the culture medium (1 ml) was removed for NKT analysis. Percentage of NKT cells in the CD3+ population was detected by flow cytometry using fluorescently labeled CD1 tetramers or fluorescently labeled antibodies (anti-CD3, anti-Vβ11, and anti NKT). The NKT population was identified by flow cytometry as the Vβ11+, Tetramer+ and TCRαβ+ population. NKT cell percentage was calculated in each sample by subtracting the Vβ11+ PBS -57-tetramer+ TCRαβ+ from the Vβ11+ empty-tetramer+TCRαβ+.
# Peripheral blood lymphocytes were derived from two healthy donors and cultured in RPMI with 5% AB serum. Cells are plated in a 12-well plate with 2×10^6 cells per well per 2 ml media. One well received carrier (0.05% Tween20 and 1% DMSO in PBS) as a negative control, and test wells received αGalCer, PBS-25, PBS-57, or PBS-83 at final concentrations of 1 ng/ml, 10 ng/ml and 100 ng/ml. The structure of PBS-83 is shown below:
# All cultures were supplemented with rhIL-2 to obtain a final concentration of 100 UI/ml by day 1, and cultured for 7 days at 37° C. under 5% CO2 conditions. At day 7, the percentage NKT cells was detected by flow cytometry.
# [2] = tested on: CD11c+CD8α− and CD11c+CD8α+ dendritic cells; experiment: Dendritic cell subsets and maturation (CD40, CD80, CD86) in splenocytes of mice 24 hours after intravenous administration; format: in vivo, C57B1/6J mice; conditions: for decrease of both subsets of DCs (CD11c+CD8α− and CD11c+CD8α+) compared to the control: splenocytes; for percentage of CD40+, CD80+ and CD86+ expressing cells in both the CD11c+CD8α− and CD11c+CD8α+ populations: splenocytes (FIGS. 5A-5F)
# Protocol: (§1) To test for adjuvant activity of PBS57 in vivo, mice were injected with test compounds and assayed for cell activation and expansion at 24 hours. Four groups of five C57B1/6J mice were each intravenously administered phosphate buffered saline (PBS) with carrier (DMSO alone), 0.97 μg of αGalCer, 1.3 μg of PBS57, or 0.97 μg of PBS83 in a total of 100 μl PBS. 24 hours after administration of the test compound, the mice were sacrificed and blood samples and splenocytes were isolated by standard methods. Percentage of NKT cells in the spleen was evaluated by flow cytometry with staining using anti-TCRαβ-FITC and PE-labeled CD1d-tetramer loaded with PBS-57 (PBS57-tetramer) or without lipid (empty-tetramer). […] The percentage of NKT cells was determined by subtracting the percentage of PBS57-tetramer+ cells from the percentage of empty-tetramer+ cells in the TCRαβ population.
# Dendritic cells (DCs) were detected in the splenocytes by flow cytometry by staining with anti-CD11c R-PE (BD Pharmingen) and anti-CD8α FITC (Beckman Coulter). Two subsets of dendritic cells, CD11c+CD8α− and CD11c+CD8α+ populations, were analyzed further. […] To determine if administration of glycolipid induced maturation of the two subsets of dendritic cells, the cells were stained with anti-CD40 Biotin/Stepta APC (BD Bioscience), anti-CD80 Biotin (BD Pharmingen)/Stepta APC (BD Bioscience) and anti-CD86 Biotin (BD Pharmingen)/Stepta APC (BD Bioscience) antibodies and analyzed by flow cytometry. FIGS. 5A and 5B show the percentage of CD40 positive cells in both the CD11c+CD8α− and CD11c+CD8α+ cells, respectively. […] Horizontal lines represent the averages.
# [3] = tested on: Ova-specific target cells; experiment: In vivo specific cytotoxic T cell (CD8+) response: specific lysis of CFSE-labeled SIINFEKL-loaded target cells in immunized mice; parameters: species or system C57/B1/6J CD45.2 female mice; conditions: for specific lysis of Ova-specific target cells in the blood, IM versus IV: 400 μg Ova and 1 μg adjuvant in 50 μl PBS, IM or IV, readout day 11 (FIG. 13); for specific lysis of Ova-specific target cells in the blood, intramuscular immunization: IM hind left leg, 400 μg Ova with 1 μg to 10 pg adjuvant, readout day 11 (FIG. 11, FIG. 12); for specific lysis of Ova-specific target cells in the blood, intravenous immunization: 50 μg Ova with varying doses of adjuvant, readout day 11 (FIG. 8, FIG. 9)
# [4] = tested on: INF-γ and IL-4; conditions: in vitro; cited from earlier work
# [5] = tested on: TCRαβ cells and NKT cells in the spleen; experiment: TCRαβ and NKT cell populations in the spleen of mice 24 hours after intravenous administration; format: in vivo, C57B1/6J mice; conditions: 0.97 μg αGalCer or 1.3 μg PBS57, 24 hours; for percentage of TCRαβ cells in the spleen: compared with PBS and carrier control (FIG. 4A); for percentage of NKT cells within the TCRαβ population in the spleen: relative to control (FIG. 4B)
# Protocol: as §1
# [6] = tested on: tetanus toxoid; experiment: Antibody (IgG) response to tetanus toxoid immunization, tetanus toxoid specific ELISA; format: in vivo; conditions: mice, IM day 0 and day 15, 10 μg TT with 1 μg PBS57 versus TT alone, blood day 0, 15 and 30 (FIG. 14)
# Protocol: IgG titers were determined by standard methods from blood samples drawn on day 0, 15 and 30. The antibody titer was determined by tetanus toxoid specific ELISA.
# [7] = tested on: Ova-specific CD8+ T cells; experiment: H2Kb-SIINFEKL pentamer staining of CD8+ T cells in blood after immunization with Ova; format: in vivo, C57/B1/6J CD45.2 female mice
# Protocol: A mouse model was used to test the in vivo specific T cell response (CD8+) elicited by PBS57 in combination with antigen. C57/B1/6J CD45.2 female mice were immunized intramuscularly on day 0 and 14 with antigen (Ovalbumin, Ova, grade VII, Sigma, St. Louis, Mo.) with or without adjuvant, adjuvant alone, or carrier alone (control) in a total of 100 μl PBS carrier. Test adjuvant was 1 μg PBS57 with or without 50 μg Ova. Each group included at least three mice. Blood was collected from each mouse at day 21 and isolated cells were subjected to pentamer staining with H2K^b-SIINFEKL pentamers after blocking the Fc receptor. FACS analysis was performed including only CD8+ cells in the analysis (CD19+ cells were excluded from the analysis to exclude any B cells). […] The results are reported as mean+/−standard deviation of H2K^b-SIINFEKL specific CD8+ T cells in the blood.
# A mouse model was used to test the in vivo specific T cell response (CD8+) elicited by PBS57 in combination with antigen as compared to that of αGalCer. C57/B1/6J CD45.2 female mice were immunized subcutaneously on day 0 and 14 with antigen (Ovalbumin, Ova, grade VII, Sigma, St. Louis, Mo.) with or without adjuvant, adjuvant alone, or carrier alone (control) in a total of 100 μl PBS carrier. Test adjuvant was 1 μg PBS57 or αGalCer with or without 50 μg Ova. Each group included at least three mice. […]
# [8] = tested on: NKT cells; experiment: Increase in NKT cells (day 7 / day 0) in PBL/PBMC cultures from healthy donors; format: cell-based; conditions: PBL cultures from human volunteers (FIG. 3)
# Protocol: NKT staining was performed on a panel of fourteen healthy donor peripheral blood lymphocytes (PBL) or peripheral blood […] (PBMC) samples. PBLs were isolated from 12 subjects, and PBMCs were isolated from 2 subjects. Each isolated cell sample was split into two samples. The first sample from each donor was stained with 10 μl anti-Vβ11 FITC (Beckman Coulter), 10 μl anti-TCRαβ-PC5 (Beckman Coulter), and 2 μl PE-labeled PBS-57-CD1d-tetramer. The second sample from each donor was stained with 10 μl Vβ11, 10 μl anti-TCRαβ-FITC, and 2 μl PE-labeled empty-CD1d-tetramer.
# To determine a percentage increase in NKT cells, the number of NKT cells on day 7 was divided by the number of NKT cells on day 0.
SMILES,percentage of NKT cells in the CD3+ population [1],"increase in NKT cells over cells treated with αGalCer ([1]; separate experiment, PBL of two healthy donors, 1, 10 and 100 ng/ml, day 7 (FIG. 2))",decrease of both subsets of DCs (CD11c+CD8α− and CD11c+CD8α+) compared to the control [2] [%],"percentage of CD40+, CD80+ and CD86+ expressing cells in both the CD11c+CD8α− and CD11c+CD8α+ populations [2]","specific lysis of Ova-specific target cells in the spleen ([3]; 1 μg adjuvant with 50 μg Ova on day 0, target cells day 10, readout day 11 (FIG. 7))","specific lysis of Ova-specific target cells in the blood, IM versus IV [3]","specific lysis of Ova-specific target cells in the blood, intramuscular immunization [3]","specific lysis of Ova-specific target cells, varying Ova dose ([3]; IV, 1 μg PBS57 with 50 μg to 10 pg Ova, readout day 11 (FIG. 10))","specific lysis of Ova-specific target cells in the blood, intravenous immunization ([3]; IV)",release of INF-γ and IL-4 [4],percentage of TCRαβ cells in the spleen [5],percentage of NKT cells within the TCRαβ population in the spleen [5],antibody (IgG) titer to tetanus toxoid [6],"H2Kb-SIINFEKL specific CD8+ T cells in the blood, intramuscular immunization ([7]; IM day 0 and 14, 1 μg PBS57 with 50 μg Ova, compared to Ova alone, blood day 21 (FIG. 15))","H2Kb-SIINFEKL specific CD8+ T cells in the blood, subcutaneous immunization ([7]; SC day 0 and 14, 1 μg PBS57 with 50 μg Ova, compared to Ova alone or αGalCer and Ova, blood day 21 (FIG. 16))",increase in NKT cells (number on day 7 divided by number on day 0) [8]
CCCCCCCCC=CCCCCCCCCCCCCCC(=O)N[C@@H](OC1OC(CNC(C)=O)C(O)C(O)C1O)C(O)[C@H](O)CCCCCCCCCCCCCC (stereo partly drawn) [PBS57],expansion of NKT cells,at least a two fold increase,50,substantially increased,produced cytotoxic lysis of Ova-specific target cells,caused a cytotoxic response regardless of the route of administration,can elicit a specific cytotoxic response when injected both intravenously and intramuscularly,dependent on antigen concentration,dose-dependent specific cytotoxic effect,induce the release of the INF-γ and IL-4,increase in percentage of TCRαβ cells,decrease in percentage of NKT cells,enhanced the antibody response to TT,increase in Ova-specific CD8+ T cells,increase in Ova-specific CD8+ T cells,substantial increase in NKT cells
"CCCCCCCCCCCCCCCCCCCCCCCCCC(=O)N[C@@H](COC1OC(CO)C(O)C(O)C1O)[C@H](O)[C@H](O)CCCCCCCCCCCCCC (stereo partly drawn) [αGalCer, α-galactosyceramide, reference compound]",expansion of NKT cells,–,50,substantially increased,–,did not induce a cytotoxic response when injected intramuscularly,not able to generate a specific cytotoxic T cell response; also recorded: can only elicit a cytotoxic response when injected intravenously,–,dose dependent specific cytotoxic effect; also recorded: elicited a cytotoxic response when injected intravenously at 1 μg-10 ng,–,increase in percentage of TCRαβ cells,decrease in percentage of NKT cells,–,–,–,–
